# Test results published in patent publication EP4745134A1 (Jiangsu Yahong Meditech Co., Ltd., priority 2023, dated 2025).
# Biological target: PRMT5-MTA (Homo sapiens, UniProt O14744)
# Test: Enzymatic inhibitory activity against PRMT5-MTA (AlphaScreen)
# Assay type: biochemical
# Details: not given
# Procedure: The AlphaScreen method was used to detect the enzymatic inhibitory activity of the compounds against PRMT5-MTA. 1 x Methyltransferase assay buffer IV (signalchem) was prepared as a solution for diluting each component for the enzymatic reaction. PRMT5/[…] protein of a final concentration of 1 nM, […] (sigma) of a final concentration of 1 uM and S-(5'-adenosine)-L-methionine chloride dihydrochloride (sigma) of a final concentration of 2.5 uM were mixed, then incubated for 30 minutes at room temperature, and transferred to an OptiPlate-384 well plate (PerkinElmer) at a volume of 6 uL per well, for which no PRMT5/[…] protein was added to the control wells. The test compound was 3-fold serially diluted into 10 concentrations, starting from a concentration of 1000 nM, and the series of diluted compounds were added to all wells except the control wells in the well plate using Tecan D300e. The well plate was subjected to centrifugation for 1 minute at 1000 rpm in a centrifuge, and then incubated for 15 minutes at 23°C. Histone H4 substrate of a final concentration of 5 nM was added to the well plate at 4 uL per well, centrifuged for 1 minute at 1000 rpm in a centrifuge, then placed in an incubator at 23°C and reacted for 45 minutes. Anti-histone H4 (symmetrical dimethyl R3) antibody (Abcam) was incubated with 50 ug/mL of AlphaScreen Protein A Acceptor beads (PerkinElmer) for 10 minutes at room temperature beforehand, and then added to the well plate at a volume of 10 uL per well. The mixture was reacted for 1 hour at room temperature. 50 Ug/mL of AlphaScreen Streptavidin Donor beads (PerkinElmer) was added at 10 uL per well, and reacted for 1 hour at room temperature. The signal values were detected for the well plate through the Alpha method using an Envision multifunctional microplate-reader, and the IC50 values for inhibition of the compounds on PRMT5/MET50 enzyme activity were calculated in Xlfit 5.0 software. Table 1. IC50 values for inhibition of the compounds on PRMT5+MTA enzyme activity
# Chain of PRMT5-MTA (O14744 whole entry): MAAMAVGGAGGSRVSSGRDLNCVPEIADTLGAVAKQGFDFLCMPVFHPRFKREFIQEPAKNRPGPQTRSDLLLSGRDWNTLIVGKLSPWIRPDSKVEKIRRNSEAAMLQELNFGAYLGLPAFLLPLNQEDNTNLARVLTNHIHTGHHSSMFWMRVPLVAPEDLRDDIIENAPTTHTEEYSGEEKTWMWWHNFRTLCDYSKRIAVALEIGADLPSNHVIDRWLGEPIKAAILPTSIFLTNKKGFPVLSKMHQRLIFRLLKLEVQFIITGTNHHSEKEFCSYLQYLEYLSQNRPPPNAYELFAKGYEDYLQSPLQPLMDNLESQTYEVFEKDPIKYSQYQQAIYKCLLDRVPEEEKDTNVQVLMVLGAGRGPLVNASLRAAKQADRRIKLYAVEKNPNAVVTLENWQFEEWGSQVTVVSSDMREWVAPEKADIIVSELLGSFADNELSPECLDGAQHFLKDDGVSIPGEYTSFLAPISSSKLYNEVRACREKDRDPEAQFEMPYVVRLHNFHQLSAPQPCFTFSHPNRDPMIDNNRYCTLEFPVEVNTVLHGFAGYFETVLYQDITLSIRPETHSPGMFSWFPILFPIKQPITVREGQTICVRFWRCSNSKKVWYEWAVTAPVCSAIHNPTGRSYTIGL
# Chain of PRMT5-MTA (Q9BQA1 whole entry partner): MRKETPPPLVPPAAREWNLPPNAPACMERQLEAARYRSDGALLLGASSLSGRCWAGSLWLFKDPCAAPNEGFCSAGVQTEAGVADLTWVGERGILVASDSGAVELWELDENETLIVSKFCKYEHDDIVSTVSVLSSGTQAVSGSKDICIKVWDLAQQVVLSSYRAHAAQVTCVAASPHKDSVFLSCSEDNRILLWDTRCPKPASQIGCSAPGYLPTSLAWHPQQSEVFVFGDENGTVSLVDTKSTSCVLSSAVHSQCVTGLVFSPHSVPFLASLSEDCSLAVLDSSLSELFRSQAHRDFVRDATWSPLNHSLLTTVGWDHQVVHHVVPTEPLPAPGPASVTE
row,Compound,IC50 [nM]
1,Cc1cc2nc(N)c3cnn(C)c3c2cc1C(=O)N(C)N1c2ccccc2CC1C (stereo not shown) [Example 280],4

# Same assay, conditions: read-out: IC50
row,Compound,IC50 [nM]
1,"Cc1cc2nc(N)c3cnn(C)c3c2cc1C(=O)N1C(C)CCN1c1ncccn1 (stereo not shown) [Example 373, (4-amino-1,7-dimethyl-1H-pyrazolo[4,3-c]quinolin-8-yl)(5-methyl-2-(pyrimidin-2-yl)pyrazolidin-1-yl)methanone]",7.5
2,"Cc1cc2nc(N)c3cnn(C)c3c2cc1C(=O)N1CCC(=O)N1c1ccc(C(F)(F)F)cn1 [Example 463, 1-(4-amino-1,7-dimethyl-1H-pyrazolo[4,3-c]quinoline-8-carbonyl)-2-(5-(trifluoromethyl)pyridin-2-yl)pyrazolidin-3-one]",1.3
3,"Cc1ncsc1-c1ccc(CN(C(=O)c2ccc3nc(N)c4cnn(C)c4c3c2)N(c2ncccn2)C2CC2)nc1 [Example 252, 4-amino-N'-cyclopropyl-1-methyl-N-((5-(4-methylthiazol-5-yl)pyridin-2-yl)methyl)-N'-(pyrimidin-2-yl)-1H-pyrazolo[4,3-c] quinoline-8-carbohydrazide]",4.8
4,"Cc1ncsc1-c1ccc(CN(C(=O)c2cc3c(cc2F)nc(N)c2cnn(C)c23)N(c2ncccn2)C2CC2)nc1 [Example 253, 4-amino-N'-cyclopropyl-7-fluoro-1-methyl-N-((5-(4-methylthiazol-5-yl)pyridin-2-yl)methyl)-N'-(pyrimidin-2-yl)-1H-pyraz olo[4,3-c]quinoline-8-carbohydrazide]",6.1
5,"Cc1cc2nc(N)c3cnn(C)c3c2cc1C(=O)N1CC(C)CN1c1ncc(C#N)cc1F (stereo not shown) [Example 371, 6-(2-(4-amino-1,7-dimethyl-1H-pyrazolo [4,3-c]quinoline-8-formyl)-4-methylpyrazolidin-1-yl)-5-fluoronicotinonitrile]",5.5
6,"CN(c1ccc(C(F)(F)F)cn1)N(CC(F)(F)F)C(=O)c1ccc2nc(N)c3c(c2c1)COC3 [Example 54, 4-amino-N'-methyl-N-(2,2,2-trifluoroethyl)-N'-(5-(trifluoromethyl)pyridin-2-yl)-1,3-dihydrofuro[3,4-c]quinoline-8-carbohydrazide]",15.8
7,"Cc1cc2nc(N)c3cnn(C)c3c2cc1C(=O)N1CC(C)CN1c1cccc(F)c1F (stereo not shown) [Example 363, (4-amino-1,7-dimethyl-1H-pyrazolo[4,3-c]quinolin-8-yl)(2-(2,3-difluorophenyl)-4-methylpyrazolidin-1-yl)methanone]",3.1
8,"Cc1cc2nc(N)c3cnn(C)c3c2cc1C(=O)N1CC(C)CN1c1ncccc1C (stereo not shown) [Example 380, (4-amino-1,7-dimethyl-1H-pyrazolo[4,3-c]quinolin-8-yl)(4-methyl-2-(3-methylpyridin-2-yl)pyrazolidin-1-yl)methanone]",3.4
9,"Cn1ncc2c(N)nc3ccc(C(=O)N4CCCN4c4ccc(C(F)(F)F)cn4)cc3c21 [Example 339, (4-amino-1-methyl-1H-pyrazolo[4,3-c]quinolin-8-yl)(2-(5-(trifluoromethyl)pyridin-2-yl)pyrazolidin-1-yl)methanone]",4.6
10,"CN(c1ncccn1)N(Cc1ccc(C(F)(F)F)cn1)C(=O)c1cc2c(cc1Cl)nc(N)c1cnn(C)c12 [Example 17, 4-amino-7-chloro-N',1-dimethyl-N'-(pyrimidin-2-yl)-N-((5-(trifluoromethyl)pyridin-2-yl)methyl)-1H-pyrazolo[4,3-c]quinoline-8-carbohydrazide]",7
11,"CCc1cc2nc(N)c3cnn(C)c3c2cc1C(=O)N1CCCN1c1ccc(C(F)(F)F)cn1 [Example 496, (4-amino-7-ethyl-1-methyl-1H-pyrazolo[4,3-c]quinolin-8-yl)(2-(5-(trifluoromethyl)pyridin-2-yl)pyrazolidin-1-yl)methanone]",3.4
12,"Cc1ncsc1-c1ccc(CN(C(=O)c2ccc3nc(N)c(CF)cc3c2)N(c2ncccn2)C2CC2)nc1 [Compound 324, 2-amino-N'-cyclopropyl-3-(fluoromethyl) -N-((5-(4-methylthiazol-5-yl)pyridin-2-yl)methyl)-N'-(pyrimidin-2-yl)quinoline-6-carbohydrazide]",4.4
13,"Cc1cc2cc(C(=O)N3CC(C)CN3c3ncccc3F)c(F)cc2nc1N (stereo not shown) [Example 333, (2-amino-7-fluoro-3-methylquinolin-6-yl)(2-(3-fluoropyridin-2-yl)-4-methylpyrazolidin-1-yl)methanone]",7.7
14,"CCn1ncc2c(N)nc3cc(C)c(C(=O)N4CC(C)CN4c4ncccc4F)cc3c21 (stereo not shown) [Example 503, (4-amino-1-ethyl-7-methyl-1H-pyrazolo[4,3-c]quinolin-8-yl)(2-(3-fluoropyridin-2-yl)-4-methylpyrazolidin-1-yl)methanone]",5.2
15,"Cc1cc2nc(N)c3cnn(C)c3c2cc1C(=O)N1CC(C)CN1c1ncccc1OC(F)(F)F (stereo not shown) [Example 334, (4-amino-1,7-dimethyl-1H-pyrazolo[4,3-c]quinolin-8-yl)(4-methyl-2-(3-(trifluoromethoxy)pyridin-2-yl)pyrazolidin-1-yl)m ethanone]",9.2
16,"Cc1cc2nc(N)c3cnn(C)c3c2cc1C(=O)N(C)N1CCCc2cccnc21 [Example 268, 4-amino-N-(3,4-dihydro-1,8-naphthyridin-1(2H)-yl)-N,1,7-trimethyl-1H-pyrazolo[4,3-c]quinoline-8-carboxamide]",3.5

# Results, then the compound that gave them:
row,IC50 [nM],Compound
1,6.4,"Cc1cc2cc(C(=O)N(Cc3ccc(P(C)(C)=O)cn3)N(C)c3ncccn3)ccc2nc1N [Example 297, 2-amino-N-((5-(dimethylphosphoryl)pyridin-2-yl)methyl)-N',3-dimethyl-N'-(pyrimidin-2-yl)quinoline-6-carbohydrazide]"
2,1.9,"Cc1cc(N)nc2ccc(C(=O)N(Cc3ccc(C(F)(F)F)cn3)N(C)c3ncccn3)cc12 [Compound 30, 2-amino-N',4-dimethyl-N'-(pyrimidin-2-y 1)-N-((5-(trifluoromethyl)pyridin-2-yl)methyl)quinoline-6-carbohydrazide]"
3,2.9,"Cc1cc2cc(C(=O)N(Cc3cccc(C(F)(F)F)n3)N(C)c3ncccn3)ccc2nc1N [Example 103, 2-amino-N',3-dimethyl-N'-(pyrimidin-2-yl)-N-((6-(trifluoromethyl)pyridin-2-yl)methyl)quinoline-6-carbohydrazide]"
4,8.6,"Cc1cc2cc(C(=O)N(Cc3ccc(C4=CCNCC4)cn3)N(C)c3ncccn3)ccc2nc1N [Example 262, 2-amino-N',3-dimethyl-N'-(pyrimidin-2-yl)-N-((1',2',3',6'-tetrahydro-[3,4'-bipyridine]-6-yl)methyl)quinoline-6-carbohydrazide]"
5,1.3,"Cc1cc2cc(C(=O)N(Cc3ccc(C(F)(F)F)cn3)N(C)c3ncc(P(C)(C)=O)cn3)ccc2nc1N [Example 296, 2-amino-N'-(5-(dimethylphosphoryl)pyrimidin-2-yl)-N',3-dimethyl-N-((5-(trifluoromethyl)pyridin-2-yl)methyl)quinoline-6-carbohydrazide]"
6,5.7,"Cc1cc2cc(C(=O)N(Cc3ccc(C(F)(F)F)cn3)N(c3ncccn3)C3CC3)c(F)cc2nc1N [Example 269, 2-amino-N'-cyclopropyl-7-fluoro-3-methyl-N'-(pyrimidin-2-yl)-N-((5-(trifluoromethyl)pyridin-2-yl)methyl)quinoline-6-car bohydrazide]"
7,1.1,"Cc1cc2cc(C(=O)N(Cc3ccc(C(F)(F)F)cn3)N(C)c3ncc(C(F)(F)F)cn3)ccc2nc1N [Example 77, 2-amino-N',3-dimethyl-N-((5-(trifluoromethyl)pyridin-2-yl)methyl)-N'-(5-(trifluor omethyl)pyrimidin-2-yl)quinoline-6-carbohydrazide]"
8,3.3,"Cc1cc2cc(C(=O)N(Cc3ccc(F)cn3)N(C)c3ncccn3)ccc2nc1N [Example 71, 2-amino-N-((5-fluoropyridin-2-yl)methyl)-N',3-dimethyl-N'-(pyrimidin-2-yl)quin oline-6-carbohydrazide]"
9,2.6,"Cc1cc2cc(C(=O)N(Cc3ccc(C(F)(F)F)cn3)N(C)c3ncc(S(C)(=O)=O)cn3)ccc2nc1N [Example 96, 2-amino-N',3-dimethyl-N'-(5-(methylsulfonyl)pyrimidin-2-yl)-N-((5-(trifluoromethyl)pyridin-2-yl)methyl)quinoline-6-carbohydrazide]"
10,2,"Cc1cc2cc(C(=O)N(Cc3ccc(C4(O)COC4)cn3)N(C)c3ncccn3)ccc2nc1N [Example 285, 2-amino-N-((5-(3-hydroxyoxetan-3-yl)pyridin-2-yl)methyl)-N',3-dimethyl-N'-(pyrimidin-2-yl)quinoline-6-carbohydrazide]"
11,1.8,"Cc1cc2cc(C(=O)N(Cc3ccc(C(F)(F)F)cn3)N(C)c3ncc(I)cn3)ccc2nc1N [Example 267, 2-amino-N'-(5-iodopyrimidin-2-yl)-N',3-dimethyl-N-((5-(trifluoromethyl)pyridin-2-yl)methyl)quinoline-6-carbohydrazide]"
